# According to PubChem BioAssay AID2060887 (Molecular Pharmacology Branch, DTP, NCI, 2025):
# System: 782815-120-R-J1-PDC complex spheroid viability
# Assay: Anticancer human tumor 782815-120-R-J1-PDC patient-derived colon adenocarcinoma cell line growth inhibition [RAS]
# Settings: for IC50: curve of first compound; for viability, T/C: stronger effect = lower value
# Outline: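 Tumour cells grown as complex spheroids with HUVEC endothelial cells and mesenchymal stem cells, treated with RAS pathway inhibitor combinations. Each agent spans half-log steps from near clinical Cmax, or 10 microM where Cmax is unknown.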
# [1] = second compound 0.000949 µM, first compound 0.0316 µM
# [2] = second compound 0.000949 µM, first compound 0.1 µM
# [3] = second compound 0.003 µM, first compound 0.0316 µM
# [4] = second compound 0.003 µM, first compound 0.1 µM
# [5] = second compound 0.00949 µM, first compound 0.0316 µM
# [6] = second compound 0.00949 µM, first compound 0.1 µM
# [7] = second compound 0.03 µM, first compound 0.0316 µM
# [8] = second compound 0.03 µM, first compound 0.1 µM
# [9] = second compound 0.0949 µM, first compound 0.0316 µM
# [10] = second compound 0.0949 µM, first compound 0.1 µM
# [11] = second compound 0.3 µM, first compound 0.0316 µM
# [12] = second compound 0.3 µM, first compound 0.1 µM
# 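Further: spheroids exposed to compounds for 7 days before reading.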
# 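Wherever viability, T/C is given: 100% = DMSO vehicle control viability.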
smiles,measurement,setting,value
CC(C)n1nc(-c2ccc3oc(N)nc3c2)c2c(N)ncnc21 + CCn1c(-c2cccnc2C(C)OC)c2c3cc(ccc31)N1CCOC(CC(NC(=O)C(C(C)C)N(C)C(=O)C3(F)CCN(C(=O)C#CC(C)(C)N(C)C)CC3)C(=O)N3CCCC(N3)C(=O)OCC(C)(C)C2)C1,IC50,second compound 0.000949 µM,> 100 nM
same,IC50,second compound 0.003 µM,> 100 nM
same,IC50,second compound 0.00949 µM,> 100 nM
same,IC50,second compound 0.03 µM,> 100 nM
same,IC50,second compound 0.0949 µM,> 100 nM
same,IC50,second compound 0.3 µM,> 100 nM
same,"viability, T/C","second compound 0.000949 µM, first compound 0.000316 µM",88.2%
same,"viability, T/C","second compound 0.000949 µM, first compound 0.001 µM",90.7%
same,"viability, T/C","second compound 0.000949 µM, first compound 0.00316 µM",93%
same,"viability, T/C","second compound 0.000949 µM, first compound 0.01 µM",88.2%
same,"viability, T/C",[1],88.1%
same,"viability, T/C",[2],76.3%
same,"viability, T/C","second compound 0.003 µM, first compound 0.000316 µM",91.5%
same,"viability, T/C","second compound 0.003 µM, first compound 0.001 µM",107%
same,"viability, T/C","second compound 0.003 µM, first compound 0.00316 µM",91.7%
same,"viability, T/C","second compound 0.003 µM, first compound 0.01 µM",86.4%
same,"viability, T/C",[3],84.8%
same,"viability, T/C",[4],78.2%
same,"viability, T/C","second compound 0.00949 µM, first compound 0.000316 µM",94.8%
same,"viability, T/C","second compound 0.00949 µM, first compound 0.001 µM",102%
same,"viability, T/C","second compound 0.00949 µM, first compound 0.00316 µM",87.3%
same,"viability, T/C","second compound 0.00949 µM, first compound 0.01 µM",94.3%
same,"viability, T/C",[5],87.3%
same,"viability, T/C",[6],70.7%
same,"viability, T/C","second compound 0.03 µM, first compound 0.000316 µM",87%
same,"viability, T/C","second compound 0.03 µM, first compound 0.001 µM",99.9%
same,"viability, T/C","second compound 0.03 µM, first compound 0.00316 µM",94.1%
same,"viability, T/C","second compound 0.03 µM, first compound 0.01 µM",93.6%
same,"viability, T/C",[7],106%
same,"viability, T/C",[8],70.5%
same,"viability, T/C","second compound 0.0949 µM, first compound 0.000316 µM",87.7%
same,"viability, T/C","second compound 0.0949 µM, first compound 0.001 µM",95.2%
same,"viability, T/C","second compound 0.0949 µM, first compound 0.00316 µM",99.6%
same,"viability, T/C","second compound 0.0949 µM, first compound 0.01 µM",83.7%
same,"viability, T/C",[9],87.8%
same,"viability, T/C",[10],78.8%
same,"viability, T/C","second compound 0.3 µM, first compound 0.000316 µM",90.9%
same,"viability, T/C","second compound 0.3 µM, first compound 0.001 µM",92.1%
same,"viability, T/C","second compound 0.3 µM, first compound 0.00316 µM",86.1%
same,"viability, T/C","second compound 0.3 µM, first compound 0.01 µM",90.2%
same,"viability, T/C",[11],90.6%
same,"viability, T/C",[12],69.2%
CC1(O)CCCC1n1c(=O)c(C(F)F)cc2cnc(NC3CCN(S(C)(=O)=O)CC3)nc21 (centres undefined) + CCn1c(-c2cc(N3CCN(C)CC3)cnc2C(C)OC)c2c3cc(ccc31)-c1csc(n1)CC(NC(=O)C1CC1C)C(=O)N1CCCC(N1)C(=O)OCC(C)(C)C2,IC50,second compound 0.000949 µM,3340 nM
same,IC50,second compound 0.003 µM,< 31.6 nM
same,IC50,second compound 0.00949 µM,< 31.6 nM
same,IC50,second compound 0.03 µM,< 31.6 nM
same,IC50,second compound 0.0949 µM,< 31.6 nM
same,IC50,second compound 0.3 µM,< 31.6 nM
same,"viability, T/C",[1],58.6%
same,"viability, T/C",[2],48.5%
same,"viability, T/C","second compound 0.000949 µM, first compound 0.316 µM",45%
same,"viability, T/C","second compound 0.000949 µM, first compound 1 µM",53.4%
same,"viability, T/C","second compound 0.000949 µM, first compound 3.16 µM",52.9%
same,"viability, T/C","second compound 0.000949 µM, first compound 10 µM",17%
same,"viability, T/C",[3],40.2%
same,"viability, T/C",[4],45.4%
same,"viability, T/C","second compound 0.003 µM, first compound 0.316 µM",41.3%
same,"viability, T/C","second compound 0.003 µM, first compound 1 µM",41.8%
same,"viability, T/C","second compound 0.003 µM, first compound 3.16 µM",39.1%
same,"viability, T/C","second compound 0.003 µM, first compound 10 µM",15.1%
same,"viability, T/C",[5],26.1%
same,"viability, T/C",[6],28.3%
same,"viability, T/C","second compound 0.00949 µM, first compound 0.316 µM",22.4%
same,"viability, T/C","second compound 0.00949 µM, first compound 1 µM",26.3%
same,"viability, T/C","second compound 0.00949 µM, first compound 3.16 µM",30%
same,"viability, T/C","second compound 0.00949 µM, first compound 10 µM",8.61%
same,"viability, T/C",[7],16.6%
same,"viability, T/C",[8],17.6%
same,"viability, T/C","second compound 0.03 µM, first compound 0.316 µM",17.4%
same,"viability, T/C","second compound 0.03 µM, first compound 1 µM",15.8%
same,"viability, T/C","second compound 0.03 µM, first compound 3.16 µM",22.4%
same,"viability, T/C","second compound 0.03 µM, first compound 10 µM",4.67%
same,"viability, T/C",[9],12.4%
same,"viability, T/C",[10],13.8%
same,"viability, T/C","second compound 0.0949 µM, first compound 0.316 µM",13.6%
same,"viability, T/C","second compound 0.0949 µM, first compound 1 µM",13.5%
same,"viability, T/C","second compound 0.0949 µM, first compound 3.16 µM",18.5%
same,"viability, T/C","second compound 0.0949 µM, first compound 10 µM",5.05%
same,"viability, T/C",[11],14.8%
same,"viability, T/C",[12],12.7%
same,"viability, T/C","second compound 0.3 µM, first compound 0.316 µM",13.9%
same,"viability, T/C","second compound 0.3 µM, first compound 1 µM",15%
same,"viability, T/C","second compound 0.3 µM, first compound 3.16 µM",18.2%
same,"viability, T/C","second compound 0.3 µM, first compound 10 µM",4.68%
